Results taken from ChEMBL document CHEMBL1125524, “Adenosine A1 antagonists. 2. Structure-activity relationships on diuretic activities and protective effects against acute renal failure” (J Med Chem, 1992).

How the values were obtained:
[1] = system: Rattus norvegicus; test: Ratio of urinary excretion value (urinary volume) in treated rats to that in control rats, at a peroral dose of 25 mg/Kg; format: functional, Urine
[2] = system: Rattus norvegicus; test: Ratio of urinary excretion value (Na+ concentration) in treated rats to that in control rats, at a peroral dose of 25 mg/Kg; format: functional, Urine
[3] = system: Rattus norvegicus; test: Oral diuretic activity was measured after oral administration of 25 mg/kg to rats(control volume is 1.02+/-0.02); format: functional, Urine
[4] = target: T1, Adenosine A2 receptor (Rattus norvegicus, UniProt P29276+P30543)
[5] = target: T1, Adenosine A2 receptor; remark: listed apart in the source
Description: Binding affinity towards adenosine A2 receptor in rat striatal membranes using N-[3H]-ethyladenosin-5''-uronamide as radioligand

[6] = system: Rattus norvegicus; test: Ratio of sodium ion/potassium ion concentration in treated rats to that in control rats, at a peroral dose of 25 mg/Kg; format: functional
[7] = system: Rattus norvegicus; test: Effect on urinary excretion potassium and sodium after oral administration of 25 mg/kg to rats(potassium and sodium excretion in control rat is 0.209+/-0.007); format: functional, Urine
[8] = system: Rattus norvegicus; test: Percent inhibition of serum creatinine by the compound given as ratio of Cr value in treated to vehicle treated ones after intraperitoneal administration of 10 mg/kg of compound to rats(vehicle 3.38+/-0.29); format: functional; conditions: ip
[9] = target: T2, Adenosine receptor A1 (Cavia porcellus, UniProt P47745)
T2 sequence (P47745 whole entry): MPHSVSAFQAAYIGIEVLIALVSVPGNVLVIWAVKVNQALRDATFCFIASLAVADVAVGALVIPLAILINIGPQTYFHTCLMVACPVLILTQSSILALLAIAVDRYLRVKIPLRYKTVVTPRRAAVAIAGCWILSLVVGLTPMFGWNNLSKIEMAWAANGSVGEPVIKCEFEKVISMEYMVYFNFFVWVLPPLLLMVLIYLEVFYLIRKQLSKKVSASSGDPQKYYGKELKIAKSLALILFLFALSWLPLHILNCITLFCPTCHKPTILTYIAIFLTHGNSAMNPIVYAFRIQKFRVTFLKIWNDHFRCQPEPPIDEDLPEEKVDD
Description: Binding affinity against adenosine A1 receptor in guinea pig forebrain membranes using N6-[3H]cyclohexyladenosine as radioligand

[10] = system: Rattus norvegicus; test: Serum creatinine concentration measured after intraperitoneal administration of 10 mg/kg of compound to rats(vehicle 3.38+/-0.29); format: functional
[11] = system: Rattus norvegicus; test: Percent inhibition of Urea nitrogen by the compound given as ratio of UN value in treated to vehicle treated ones after intraperitoneal administration of 10 mg/kg of compound to rats(vehicle 114+/-8.7); format: functional; conditions: ip
[12] = system: Rattus norvegicus; test: Urea nitrogen concentration measured after intraperitoneal administration of 10 mg/kg of compound to rats(vehicle 114+/-8.7); format: functional
[13] = system: Rattus norvegicus; test: Percent inhibition of serum creatinine by the compound given as ratio of Cr value in treated to vehicle treated ones after intraperitoneal administration of 10 mg/kg of compound to rats(vehicle 3.93+/-0.45); format: functional; conditions: ip
[14] = system: Rattus norvegicus; test: Percent inhibition of serum creatinine by the compound given as ratio of Cr value in treated to vehicle treated ones after intraperitoneal administration of 1 mg/kg of compound to rats(vehicle 3.62+/-0.52); format: functional; conditions: ip
[15] = system: Rattus norvegicus; test: Ratio of urinary excretion value (urinary volume) in treated rats to that in control rats, at a peroral dose of 0.4 mg/Kg; format: functional, Urine
[16] = system: Rattus norvegicus; test: Serum creatinine concentration measured after intraperitoneal administration of 10 mg/kg of compound to rats(vehicle 3.93+/-0.45); format: functional
[17] = system: Rattus norvegicus; test: Oral diuretic activity was measured after oral administration of 0.1 mg/kg to rats(control volume is 1.15+/-0.12); format: functional, Urine
[18] = system: Rattus norvegicus; test: Percent inhibition of Urea nitrogen by the compound given as ratio of UN value in treated to vehicle treated ones after intraperitoneal administration of 10 mg/kg of compound to rats(vehicle 129.1+/-14.5); format: functional; conditions: ip
[19] = system: Rattus norvegicus; test: Serum creatinine concentration measured after intraperitoneal administration of 1 mg/kg of compound to rats(vehicle 3.62+/-0.52); format: functional
[20] = system: Rattus norvegicus; test: Ratio of urinary excretion value (Na+ concentration) in treated rats to that in control rats, at a peroral dose of 1.6 mg/Kg; format: functional, Urine
[21] = system: Rattus norvegicus; test: Urea nitrogen concentration measured after intraperitoneal administration of 10 mg/kg of compound to rats(vehicle 129.1+/-14.5); format: functional
[22] = system: Rattus norvegicus; test: Effect on urinary excretion potassium and sodium after oral administration of 1.6 mg/kg to rats(potassium and sodium excretion in control rat is 0.147+/-0.015); format: functional, Urine
[23] = system: Rattus norvegicus; test: Ratio of urinary excretion value (Na+ concentration) in treated rats to that in control rats, at a peroral dose of 0.1 mg/Kg; format: functional, Urine
[24] = system: Rattus norvegicus; test: Oral diuretic activity was measured after oral administration of 1.6 mg/kg to rats(control volume is 0.96+/-0.09); format: functional, Urine
[25] = system: Rattus norvegicus; test: Ratio of urinary excretion value (urinary volume) in treated rats to that in control rats, at a peroral dose of 0.1 mg/Kg; format: functional, Urine
[26] = system: Rattus norvegicus; test: Ratio of urinary excretion value (Na+ concentration) in treated rats to that in control rats, at a peroral dose of 0.4 mg/Kg; format: functional, Urine
[27] = system: Rattus norvegicus; test: Ratio of urinary excretion value (urinary volume) in treated rats to that in control rats, at a peroral dose of 1.6 mg/Kg; format: functional, Urine
[28] = system: Rattus norvegicus; test: Urea nitrogen concentration measured after intraperitoneal administration of 1 mg/kg of compound to rats(vehicle 105.2+/-14.9); format: functional
[29] = system: Rattus norvegicus; test: Effect on urinary excretion potassium and sodium after oral administration of 0.4 mg/kg to rats(potassium and sodium excretion in control rat is 0.191+/-0.020); format: functional, Urine
[30] = system: Rattus norvegicus; test: Percent inhibition of Urea nitrogen by the compound given as ratio of UN value in treated to vehicle treated ones after intraperitoneal administration of 1 mg/kg of compound to rats(vehicle 105.2+/-14.9); format: functional; conditions: ip
[31] = system: Rattus norvegicus; test: Ratio of sodium ion/potassium ion concentration in treated rats to that in control rats, at a peroral dose of 0.4 mg/Kg; format: functional
[32] = system: Rattus norvegicus; test: Ratio of sodium ion/potassium ion concentration in treated rats to that in control rats, at a peroral dose of 0.1 mg/Kg; format: functional
[33] = system: Rattus norvegicus; test: Oral diuretic activity was measured after oral administration of 0.4 mg/kg to rats(control volume is 1.15+/-0.17); format: functional, Urine
[34] = system: Rattus norvegicus; test: Ratio of sodium ion/potassium ion concentration in treated rats to that in control rats, at a peroral dose of 1.6 mg/Kg; format: functional
[35] = system: Rattus norvegicus; test: Effect on urinary excretion potassium and sodium after oral administration of 0.1 mg/kg to rats(potassium and sodium excretion in control rat is 0.133+/-0.022); format: functional, Urine
[36] = system: Rattus norvegicus; test: Ratio of sodium ion/potassium ion concentration in treated rats to that in control rats, at a peroral dose of 1.5 mg/Kg; format: functional
[37] = system: Rattus norvegicus; test: Serum creatinine concentration measured after intraperitoneal administration of 1 mg/kg of compound to rats(vehicle 4.19+/-0.2); format: functional
[38] = system: Rattus norvegicus; test: Effect on urinary excretion potassium and sodium after oral administration of 25 mg/kg to rats(potassium and sodium excretion in control rat is […]+/-[…]); format: functional, Urine
[39] = system: Rattus norvegicus; test: Urea nitrogen concentration measured after intraperitoneal administration of 0.1 mg/kg of compound to rats(vehicle 93.4+/-10); format: functional
[40] = system: Rattus norvegicus; test: Ratio of urinary excretion value (urinary volume) in treated rats to that in control rats, at a peroral dose of 1.5 mg/Kg; format: functional, Urine
[41] = system: Rattus norvegicus; test: Oral diuretic activity was measured after oral administration of 1.5 mg/kg to rats(control volume is 1.01+/-0.08); format: functional, Urine
[42] = system: Rattus norvegicus; test: Ratio of urinary excretion value (urinary volume) in treated rats to that in control rats, at a peroral dose of 6.25 mg/Kg; format: functional, Urine
[43] = system: Rattus norvegicus; test: Oral diuretic activity was measured after oral administration of 25 mg/kg to rats(control volume is 0.74+/-0.05); format: functional, Urine
[44] = system: Rattus norvegicus; test: Effect on urinary excretion potassium and sodium after oral administration of 1.5 mg/kg to rats(potassium and sodium excretion in control rat is 0.165+/-0.008); format: functional, Urine
[45] = system: Rattus norvegicus; test: Urea nitrogen concentration measured after intraperitoneal administration of 1 mg/kg of compound to rats(vehicle 156.1+/-8.4); format: functional
[46] = system: Rattus norvegicus; test: Ratio of urinary excretion value (Na+ concentration) in treated rats to that in control rats, at a peroral dose of 6.25 mg/Kg; format: functional, Urine
[47] = system: Rattus norvegicus; test: Serum creatinine concentration measured after intraperitoneal administration of 0.1 mg/kg of compound to rats(vehicle 2.9+/-0.28); format: functional
[48] = system: Rattus norvegicus; test: Ratio of urinary excretion value (Na+ concentration) in treated rats to that in control rats, at a peroral dose of 1.5 mg/Kg; format: functional, Urine
[49] = system: Rattus norvegicus; test: Percent inhibition of serum creatinine by the compound given as ratio of Cr value in treated to vehicle treated ones after intraperitoneal administration of 10 mg/kg of compound to rats(vehicle 3.22+/-0.35); format: functional; conditions: ip
[50] = system: Rattus norvegicus; test: Serum creatinine concentration measured after intraperitoneal administration of 10 mg/kg of compound to rats(vehicle 3.22+/-0.35); format: functional
[51] = system: Rattus norvegicus; test: Percent inhibition of Urea nitrogen by the compound given as ratio of UN value in treated to vehicle treated ones after intraperitoneal administration of 10 mg/kg of compound to rats(vehicle 110.7+/-9.4); format: functional; conditions: ip
[52] = system: Rattus norvegicus; test: Oral diuretic activity was measured after oral administration of 25 mg/kg to rats(control volume is 1.21+/-0.08); format: functional, Urine

Nc1nc2ccc(Cl)cc2n2c(-c3ccccc3)nnc12
T/C [1]: 0.85 | T/C [2]: 0.89 | Urine volume [3]: 0.87 ml 6hr-1 100g-1 | Ki [4]: 5.1 nM | Ki [5]: 21 nM | Na+/K+ [6]: 1.05 | Na [7]: 0.186 m equiv 6hr-1 100g-1 | inhibition in vivo at 10 mg/kg [8]: -36% | Ki [9]: 6900 nM | Cr [10]: 4.58 mg/dL | inhibition in vivo at 10 mg/kg [11]: -21% | UN [12]: 137.8 mg/dL

CCn1c(=O)c2nc(C(C3CC3)C3CC3)[nH]c2n(CC)c1=O
inhibition in vivo at 10 mg/kg [13]: 56% | inhibition in vivo at 1 mg/kg [14]: 10% | T/C [15]: 1.84 | Cr [16]: 1.74 mg/dL | Urine volume [17]: 0.83 ml 6hr-1 100g-1 | inhibition in vivo at 10 mg/kg [18]: 61% | Cr [19]: 3.24 mg/dL | T/C [20]: 2.12 | Ki [4]: 690 nM | UN [21]: 50.6 mg/dL | Na [22]: 0.312 m equiv 6hr-1 100g-1 | T/C [23]: 0.85 | Urine volume [24]: 1.72 ml 6hr-1 100g-1 | T/C [25]: 0.72 | T/C [26]: 2.27 | T/C [27]: 1.71 | UN [28]: 98.5 mg/dL | Na [29]: 0.433 m equiv 6hr-1 100g-1 | inhibition in vivo at 1 mg/kg [30]: 6% | Na+/K+ [31]: 1.63 | Na+/K+ [32]: 1.37 | Urine volume [33]: 2.11 ml 6hr-1 100g-1 | Na+/K+ [34]: 1.71 | Na [35]: 0.113 m equiv 6hr-1 100g-1

CCCn1c(=O)[nH]c(=O)c2[nH]c(C(C3CC3)C3CC3)nc21
Na+/K+ [36]: 1.13 | T/C [1]: 2.5 | Cr [37]: 3 mg/dL | Na [38]: 0.328 m equiv 6hr-1 100g-1 | UN [39]: 104.2 mg/dL | T/C [40]: 1.12 | Urine volume [41]: 1.13 ml 6hr-1 100g-1 | T/C [2]: 2.16 | T/C [42]: 1.42 | Ki [4]: > 100000 nM | Urine volume [43]: 1.85 ml 6hr-1 100g-1 | Na+/K+ [6]: 1.4 | Na [44]: 0.202 m equiv 6hr-1 100g-1 | UN [45]: 119.1 mg/dL | T/C [46]: 1.69 | Cr [47]: 2.96 mg/dL | T/C [48]: 1.22

NS(=O)(=O)c1cc(C(=O)O)c(NCc2ccco2)cc1Cl [FUROSEMIDE]
T/C [1]: 1.75 | T/C [2]: 1.64 | T/C [42]: 1.59 | T/C [20]: 0.94 | Na+/K+ [6]: 1.05 | T/C [27]: 1 | inhibition in vivo at 10 mg/kg [49]: -30% | Cr [50]: 4.17 mg/dL | inhibition in vivo at 10 mg/kg [51]: -36% | T/C [46]: 1.62 | Na+/K+ [34]: 0.87 | Urine volume [52]: 2.12 ml 6hr-1 100g-1
